Results on five compounds are retold here after PMC5478869, “New Hydroxycinnamic Acid Esters as Novel 5-Lipoxygenase Inhibitors That Affect Leukotriene Biosynthesis” (Mediators of Inflammation, 2017).

Assay [1] concerns arachidonic acid release. As to conditions: cited from earlier work.
Assay [2] addresses T1, 5-LO (Homo sapiens, UniProt P09917).
T1 sequence (P09917 1-674): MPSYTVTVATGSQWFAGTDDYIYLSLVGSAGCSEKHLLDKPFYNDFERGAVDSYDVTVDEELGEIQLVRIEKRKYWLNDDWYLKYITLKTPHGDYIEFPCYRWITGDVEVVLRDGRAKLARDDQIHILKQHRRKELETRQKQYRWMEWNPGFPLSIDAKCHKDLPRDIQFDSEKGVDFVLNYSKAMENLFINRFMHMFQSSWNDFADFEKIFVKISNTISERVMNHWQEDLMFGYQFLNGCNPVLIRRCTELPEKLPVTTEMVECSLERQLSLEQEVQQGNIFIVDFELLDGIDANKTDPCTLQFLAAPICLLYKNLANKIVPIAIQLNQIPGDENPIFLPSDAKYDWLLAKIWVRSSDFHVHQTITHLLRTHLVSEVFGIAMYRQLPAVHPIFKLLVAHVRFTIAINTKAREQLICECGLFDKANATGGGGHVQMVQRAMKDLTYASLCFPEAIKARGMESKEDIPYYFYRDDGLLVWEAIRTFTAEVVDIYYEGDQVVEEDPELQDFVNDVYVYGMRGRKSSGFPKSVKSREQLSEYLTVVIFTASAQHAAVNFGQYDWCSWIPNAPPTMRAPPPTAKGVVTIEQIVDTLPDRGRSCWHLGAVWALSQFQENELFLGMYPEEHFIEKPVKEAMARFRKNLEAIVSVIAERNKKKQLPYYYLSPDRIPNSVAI
In words: Biosynthesis of 5-LO products in HEK293 cells expressing 5-LO and FLAP (A23187 + arachidonic acid). In kind it is cell-based. Also on record: expressed in transfected cells; host or cells: HEK293. As to conditions: 1 μM compound, 10 μM A23187 + 10 μM arachidonic acid, 15 min. On the procedure: HEK293 cells expressing both 5-LO and the 5-lipoxygenase activating protein (FLAP) were generated as previously reported. For cell stimulation of 5-LO products, transfected HEK293 cells were collected following trypsinization and washed and the cell pellet was resuspended in Hank's balanced salt solution (HBSS, Lonza) containing 1.6 mM CaCl2 at a concentration of 5 × 10^5 cells/ml. Cells were preincubated with each compound at the indicated concentration for 5 min at 37°C. Cells were then stimulated for 15 minutes at 37°C with the addition of 10 μM calcium ionophore A23187 (Sigma-Aldrich) and 10 μM arachidonic acid (Cayman Chemical). Stimulations were stopped by adding 0.5 volume of cold MeOH:MeCN (1 : 1) containing 100 ng/ml of 19-OH prostaglandin B2 (PGB2) as internal standard. Samples were then processed and 5-LO products were analyzed by reversed-phase high-performance liquid chromatography (RP-HPLC) as described previously.
To evaluate CAPE analogues as potential inhibitors of the biosynthesis of 5-LO products, a first series of experiments was performed in HEK293 cells expressing both 5-LO and FLAP as previously described. HEK293 cells were first preincubated with the test compounds (1 μM), then stimulated in the presence of arachidonic acid and calcium ionophore A23187 to induce the biosynthesis of 5-LO products (Figure 2(a)). […] Based on these criteria, compounds 9, 13, 14, 15, 16, and 19 were selected for subsequent analyses.
Figure 2 Effect of the test compounds on the biosynthesis of 5-LO products in transfected HEK293 cells (a) and thapsigargin-stimulated PMNL (b). (a) HEK293 cells expressing both 5-LO and FLAP were incubated in presence of the indicated compounds (1 μM) or their diluent (control, 0.5% DMSO) for 5 min, then biosynthesis of 5-LO products was initiated with the addition of 10 μM calcium ionophore A23187 and 10 μM arachidonic acid for 15 min. After stimulation, reactions were stopped and samples were processed for analysis of 5-LO products by RP-HPLC. Total 5-LO products measured represent the sum of LTB4, its trans isomers, and 5-hydroxyeicosatetraenoic acid. (b) Freshly isolated human PMNL were incubated in presence of test compounds (or their diluent control, DMSO 0.5%) at the indicated concentrations for 5 min. Biosynthesis of the 5-LO products was initiated with the addition of 1 μM of thapsigargin, followed by a 15 min incubation period at 37°C. The stimulation was then stopped and samples were processed for RP-HPLC analysis and total 5-LO products quantification. Total 5-LO products measured represent the sum of LTB4, its trans isomers, 20-COOH- and 20-OH-LTB4 and 5-hydroxyeicosatetraenoic acid. Data are expressed as means ± SEM of at least 3 independent experiments. ^∗Different from control, as determined by one-way ANOVA with Dunnett's multiple comparison test (p < 0.05).

Assay [3] concerns the target T1, 5-LO. Also on record: endogenous in cells; host or cells: human polymorphonuclear leukocytes (PMNL) isolated from whole blood; method as in PMID 22347509. As to conditions: cited from earlier work.

Each structure is given as a SMILES string. “Also recorded” adds a separate entry of the source.

Consider `CC(c1cc2ccccc2s1)N(O)C(N)=O` (stereo not shown) [Zileuton (1), zileuton, reference compound], for which, in assay [1], the “Inhibition of liberation of cellular arachidonic acid (previously shown)” value is reported as “previously shown to inhibit the liberation of cellular arachidonic acid”. Further, in assay [2], the “Inhibition of biosynthesis of 5-LO products in transfected HEK293 cells” value (“Inhibition … in transfected HEK293 cells” below) is recorded as “less effective than the selected compounds; also recorded: significantly inhibited the biosynthesis of 5-LO products”. The “Inhibition of biosynthesis of 5-LO products in whole blood (previous studies)” value in assay [3] is on record as “slightly better inhibitor of the biosynthesis of 5-LO products in whole blood than CAPE (2)”. On to `O=C(/C=C/c1ccc(O)c(O)c1)OCc1ccccc1` [Compound 11], for which the “Inhibition … in transfected HEK293 cells” value in assay [2] is “not as effective at inhibiting 5-LO as CAPE (2)”. The same measure, in the same setting: with `O=C(/C=C/c1ccc(O)c(O)c1)Oc1ccccc1` [Compound 10] the entry was “not as effective at inhibiting 5-LO as CAPE (2)”; with `CCOC(=O)/C=C/c1ccc(O)c(O)c1` [Compound 4, ethyl caffeate], “without inhibitory activity”. Regarding `COC(=O)/C=C/c1ccc(O)c(O)c1` [Compound 3], the “Inhibition … in transfected HEK293 cells” value in assay [2] is recorded as “without inhibitory activity”.
